Laboratory results from patent US4444691A, “11-Cyano-prostaglandins of the F-series” (American Cyanamid Company, priority 1982, dated 1984).
Where two headings read alike, the source gives them in different places.

Key:
[1] = tested on: bronchospasms elicited by acetylcholine; test: Bronchodilator activity (Konzett assay), acetylcholine bronchospasm; assay type: in vivo, guinea pigs; settings: Cavia porcellus; spasmogenic agent acetylcholine; three logarithmic cumulative intravenous doses
Experimental: (§1) Bronchodilator activity was determined in guinea pigs against bronchospasms elicited by intravenous injections of 5-hydroxytryptamine, histamine or acetylchlorine by the Konzett procedure. (See J. Lulling, P. Licvens, F. El Sayed and J. Prignot, Arzneinittel-Forschung, 18, 995 (1968).]
(§2) In the Table which follows bronchodilator activity for representative compounds of this invention against one or more of the three spasmogenic agents is expressed as an ED50 determined from the results obtained with three logarithmic cumulative intravenous doses.

[2] = tested on: bronchospasms elicited by histamine; test: Bronchodilator activity (Konzett assay), histamine bronchospasm; assay type: in vivo, guinea pigs; settings: spasmogenic agent histamine, three logarithmic cumulative intravenous doses; for ED50: Cavia porcellus, iv
Experimental: as §1, §2

gastric acid secretion = test: Gastric acid secretion inhibition, modified Shay rat procedure; assay type: in vivo, rats (male, CFE strain)
Excerpt: The novel compounds of the present invention are effective inhibitors of gastric acid secretion and of ulcer development in experimental animals, and thus are potentially valuable as agents for the control of gastric secretion and of gastric erosion and as anti-ulcer agents. Gastric acid secretion inhibitory action is usually measured by the "Shay rat" procedure ^(1,2) with some modifications as follows.
(1) Shay et al., Gastroenterology, 5, 43 (1945).
The rats (male, CFE strain) were starved for 48 hours (water was given ad libitum) to permit evacuation of stomach contents. On the morning of the experiment, under ether anesthesia, the abdominal region was shaved and a midline incision (1-11/2" ) was made with a scapel. With the help of a closed curved hemostat the duodenum was picked up. Upon getting the duodenum into view, fingers were used to pull the stomach through the opening, the stomach was then gently manipulated with fingers to rid stomach of air and residual matter which were pushed through the pylorus. Two-5 inch sutures were drawn under the pyloric-duodenal puncture. A ligature at the juncture, was formed with one of the threads. The second ligature was also formed but not tightened.
The test compound or the vehicle, usually 1 ml./100 g. body weight, were injected into the duodenum as close as possible to the first ligature. After injection the second ligature was tightened below the injection site to minimize leakage. The stomach was placed back through the opening into the abdominal cavity, the area of incision was washed with saline and the incision was closed with autoclips. (Occasionally, instead of an intraduodenal injection, animals were dosed by the oral or subcutaneous route. In the latter case, dosing was done thirty to sixty minutes before the operation.)
The abdominal cavity was exposed by cutting with scissors and the esophagus close to the stomach was clamped off with a hemostat, the stomach was removed by cutting above the hemostat (the esophagus was cut) and between the two sutures. Extraneous tissue was removed, the stomach washed with saline and blotted on gauze. A slit was carefully made in the stomach which was held over a funnel and the contents were collected in a centrifuge tube. The stomach was further cut along the outside edge and turned inside out. Two ml. H2 O were used to wash the stomach contents into the respective centrifuge tube. The combined stomach contents and wash were then centrifuged out for 10 minutes in the International Size 2 Centrifuge (setting at 30). The supernatant was collected, volume measured and recorded, 2 drops of a phenylphthalein indicator (1% in 95% ethanol) were added and the solution was titrated with 0.02 N NaOH (or with 0.04 N NaOH when large volumes of stomach contents were encountered) to pH 8.4 (because of usual coloring of the stomach contents, phenolphthalein was only used to permit visual indication that the end point was near) and the amount of acid present was calculated.
Compounds inducing inhibition of gastric acid secretion of 20% or more were considered active. In a representative operation, and merely by way of illustration, the results obtained with this assay with typical compounds of the present invention are given in Table II below.

[3] = tested on: ulcerogenic effects induced by indomethacin (stomach ulcers); assay type: in vivo, rat; settings: indomethacin 20 mg/kg s.c., score 0-4
Experimental: It is further to be noted that although prostaglandins in general are not effective when administered by oral route, the compounds of this invention are effective orally. The assay to determine the protective effect of these compounds is carried out in the following manner.
Rats were starved for 48 hours (water was given ad libitum). Indomethacin (20 mg./kg. of body weight) was administered by the subcutaneous route and one-half the dose of the test compound was administered by gavage at the same time. After three hours, the second half of the test compound was administered, also by gavage. Five hours after the administration of indomethacin the animals were decapitated and the stomachs removed. The stomachs were washed with distilled water, blotted on gauze, cut along the larger curvature, and the contents rinsed with distilled water. The stomachs were spread out, pinned on a cork and visualized under magnifying glass for ulcers. The criteria for scoring of ulcers was as previously reported. [Abdel-Galil et al. Brit. J. Pharmac. Chemotherapy 33:1-14 (1968)]. […]
1 Petechial hemorrhage of pin point ulcers
3 Many ulcers, a few large
4 Many ulcers, mainly large
Control animals treated with indomethacin but not test compound consistently give scores of about 2.5-3.5. Control animals treated with neither indomethacin not test compound give scores of about 0.5-0.8. Compounds diminishing the control ulcer score by 0.5 unit or more are considered to be active.

[4] = tested on: bronchospasms elicited by 5-hydroxytryptamine; test: Bronchodilator activity (Konzett assay), 5-hydroxytryptamine bronchospasm; assay type: in vivo, guinea pigs; settings: spasmogenic agent 5-hydroxytryptamine, three logarithmic cumulative intravenous doses; for ED50: Cavia porcellus
Experimental: as §1, §2

[5] = tested on: basal gastric acid secretion; test: Inhibition of total acid output (basal gastric acid secretion) in the acute gastric fistula rat; assay type: in vivo, female Sprague-Dawley rats; settings: intraduodenal, 10 mg/kg; for inhibition in vivo at 10 mg/kg: Rattus norvegicus
Experimental: Inhibition of basal gastric acid secretion can be determined by the following procedure.
Female Sprague-Dawley rats weighing 140-160 grams are fasted in individual cages for 18-24 hours. The rats are then lightly anesthetized with ether and their front teeth extracted to avoid destruction of the plastic cannula. A midline incision is then made and the stomach and duodenum exposed. A flanged polyvinyl tube is inserted into the fundic portion of the stomach and secured with a purse string suture line using 4-O Mersilene. The rat is then dosed by injection of the compound into the duodenum (1.0 ml. per 100 gram body weight). After dosing, the abdominal wall and skin are closed using metal wound clips. The rat is replaced in a cage containing a longitudinal slit to allow the polyvinyl tube to hang freely. An 8 ml. plastic collecting tube is attached to the flanged cannula and hangs freely below the cage. The first 30 minute sample is discarded designating this time as zero. The collecting tube is attached again and samples removed at the end of 60 and 120 minutes. These samples are referred to as "A" and "B" in the table. The hourly samples are then transferred to a 15 ml. centrifuge and centrifuged for 5-10 minutes. Total and sediment volume are then recorded with the supernatent volume being used as volume of secretion. A 1 ml. or less aliquot is then removed and placed in a 50 ml. beaker containing 10 ml. of distilled water. This sample is then titrated using 0.01 N NaPH to pH 7.0 using a Beckman zeromatic pH meter. Volume, titratable acidity (mew/L) and total acid output (ueq/hour) are recorded. Percent inhibition is determined by comparison with the appropriate control. Groups of three rats were used for preliminary testing, and groups of six rats were used for dose-response evaluations. All compounds are administered in a vehicle consisting of 0.5% methocel, 0.4% tween 80, and saline at a constant volume of 1 ml./100 gram rat. Samples are dispersed by sonification. Percent inhibition is calculated on basis of concurrent vehicle control.
In Table III which follows is given the effect on total acid output after 60 minutes and 120 minutes of intraduodenal dose, of representative compounds of this invention.

[6] = Rattus norvegicus, intraduodenal, 50 mg/kg, read-out: Percent inhibition of gastric acid secretion
[7] = total oral dose 12.5 mg/kg, controls 2.5-3.0
[8] = total oral dose 25 mg/kg, controls 2.7-3.9
[9] = 1 h, 60 min, read-out: % Inhibition of total acid output, after 60 minutes (A)
[10] = 2 h, 120 min, read-out: % Inhibition of total acid output, after 120 minutes (B)

SMILES: CCCCC[C@H](O)/C=C/[C@H]1[C@H](C[N+](=O)[O-])CC(=O)[C@@H]1C/C=C\CCCC(=O)O [11-deoxy-11α-nitromethyl prostaglandin E2]
- ED50 [1]: 1.7 mg/kg
- ED50 [2]: 1.4 mg/kg
- inhibition in vivo at 100 mg/kg (gastric acid secretion; Rattus norvegicus, intraduodenal, 100 mg/kg, read-out: Percent inhibition of gastric acid secretion): 74%
- Ulcer score, treated animals ([3]; total oral dose 100 mg/kg, controls 3.2): 1.0

SMILES: CCCCC[C@H](O)/C=C/[C@@H]1[C@@H](C/C=C\CCCC(=O)O)C(=O)C[C@H]1c1ccccc1 [l-11α-phenyl-11-deoxyprostaglandin-E2, l-11-deoxy-11α-phenylprostaglandin-E2]
- inhibition in vivo at 50 mg/kg (gastric acid secretion; [6]): 58%
- ED50 [4]: 0.46 mg/kg

SMILES: CCCCCC(C)/C=C/[C@H]1[C@H](C)CC(=O)[C@@H]1C/C=C\CCCC(=O)O (stereo partly drawn) [l-11α,15-dimethyl-11,15-bisdeoxyprostaglandin-E2]
- inhibition in vivo at 50 mg/kg (gastric acid secretion; [6]): 60%
- ED50 [4]: 18.1 mg/kg

SMILES: CCCCC[C@H](O)/C=C/[C@@H]1[C@@H](C/C=C\CCCC(=O)O)[C@@H](O)C[C@H]1SC [11α-methylthio-11-deoxyprostaglandin F2α]
- ED50 [2]: 1.6 mg/kg
- inhibition in vivo at 50 mg/kg (gastric acid secretion; [6]): 61%
- Ulcer score, treated animals [3, 7]: 1.2
- ED50 [4]: 2.63 mg/kg

SMILES: CCCCC[C@H](O)/C=C/[C@@H]1[C@@H](C/C=C\CCCC(=O)O)[C@@H](O)C[C@H]1C [l-11α-methyl-11-deoxyprostaglandin-F2 α, 11-deoxy-11α-methyl-prostaglandin F2α]
- ED50 [2]: 0.013 mg/kg
- inhibition in vivo at 50 mg/kg (gastric acid secretion; [6]): 70%
- Ulcer score, treated animals [3, 8]: 1.8
- ED50 [4]: 0.038 mg/kg

SMILES: CCCCC[C@H](O)/C=C/[C@@H]1[C@@H](C/C=C\CCCC(=O)O)C(=O)C[C@H]1C(C)C [l-11α-isopropyl-11-deoxyprostaglandin-E2, 11-deoxy-11α-isopropyl-prostaglandin E2]
- inhibition in vivo at 50 mg/kg (gastric acid secretion; [6]): 42%
- ED50 [4]: 8.95 mg/kg

SMILES: CCCCC[C@H](O)/C=C/[C@H]1[C@H](CC)CC(=O)[C@@H]1C/C=C\CCCC(=O)O [l-11α-ethyl-11-deoxyprostaglandin-E2, 11-deoxy-11α-ethyl-prostaglandin E2]
- inhibition in vivo at 10 mg/kg [5, 9]: 57%
- inhibition in vivo at 10 mg/kg [5, 10]: 66%
- ED50 [1]: 3.9 mg/kg
- ED50 [2]: 1.24 mg/kg
- Ulcer score, treated animals [3, 8]: 2.2

SMILES: CCCCC[C@H](O)/C=C/[C@@H]1[C@@H](C/C=C\CCCC(=O)O)[C@@H](O)C[C@H]1C#N [l-11α-cyano-11-deoxyprostaglandin-F2 α, 11α-cyano-11-deoxyprostaglandin F2 α]
- ED50 [1]: 0.051 mg/kg
- inhibition in vivo at 50 mg/kg (gastric acid secretion; [6]): 43%
- Ulcer score, treated animals [3, 8]: 1.3
- ED50 [4]: 0.03 mg/kg

SMILES: CC/C=C\CC(O)/C=C/C1C(C/C=C\CCCC(=O)O)C(=O)CC1C(C(=O)O)C(=O)O (stereo not drawn) [l-11α-dicarboxymethyl-11-deoxyprostaglandin-E3]
- ED50, bronchodilator activity [4]: 3.3 mg/kg

SMILES: CCCCC[C@H](O)/C=C/[C@H]1[C@@H](CO)CC(=O)[C@@H]1C/C=C\CCCC(=O)O [11-deoxy-11β-hydroxymethyl-prostaglandin E2]
- ED50 [1]: 0.25 mg/kg
- ED50 [2]: 0.065 mg/kg
- inhibition in vivo at 8 mg/kg (gastric acid secretion; Rattus norvegicus, sc, subcutaneous, 8 mg/kg, read-out: Percent inhibition of gastric acid secretion): 44%
- ED50 [4]: 0.3 mg/kg

SMILES: CCCCC[C@H](O)/C=C/[C@H]1[C@H](C(N)=O)CC(=O)[C@@H]1C/C=C\CCCC(=O)O [11α-carboxamido-11-deoxyprostaglandin E2]
- % Inhibition of total acid output, after 60 minutes (A) ([5]; 60 min): 27%
- % Inhibition of total acid output, after 120 minutes (B) ([5]; 120 min): 35%
- ED50, bronchodilator activity [2]: 0.53 mg/kg
- Percent inhibition of gastric acid secretion (gastric acid secretion; intraduodenal, 50 mg/kg): 27%
- ED50, bronchodilator activity [4]: 1.7 mg/kg

SMILES: CCCCC[C@H](O)/C=C/[C@H]1[C@H](CC(=O)O)CC(=O)[C@@H]1C/C=C\CCCC(=O)O [11-deoxy-11α-carboxymethylprostaglandin E2]
- ED50 [1]: 4.6 mg/kg
- ED50 [2]: 3.4 mg/kg
- ED50 [4]: 5.5 mg/kg

SMILES: CCCCC[C@H](O)CC[C@H]1[C@H](C)CC(=O)[C@@H]1CCCCCCC(=O)O [11-deoxy-11α-methyl-13,14-dihydroprostaglandin E1]
- ED50 [1]: 0.773 mg/kg
- inhibition in vivo at 50 mg/kg (gastric acid secretion; [6]): 45%
- Ulcer score, treated animals [3, 7]: 2.3
- Ulcer score, treated animals ([3]; total oral dose 50 mg/kg, controls 2.5-3.2): 1.7

SMILES: CCCCC[C@H](O)/C=C/[C@H]1[C@H](C#N)CC(=O)[C@@H]1C/C=C\CCCC(=O)O [l-11α-cyano-11-deoxyprostaglandin-E2, l-11-deoxy-11α-cyanoprostaglandin-E2]
- inhibition in vivo at 10 mg/kg [5, 9]: 49%
- inhibition in vivo at 10 mg/kg [5, 10]: 18%
- ED50 [1]: 0.0053 mg/kg
- ED50 [2]: 0.0014 mg/kg
- ED50 [4]: 0.0003 mg/kg

SMILES: CCCCC[C@H](O)/C=C/[C@H]1[C@@H](C#N)CC(=O)[C@@H]1C/C=C\CCCC(=O)O [l-11β-cyano-11-deoxyprostaglandin-E2, l-11-deoxy-11β-cyanoprostaglandin-E2]
- inhibition in vivo at 10 mg/kg [5, 9]: 26%
- inhibition in vivo at 10 mg/kg [5, 10]: 43%
- ED50 [2]: 54.9 mg/kg
- ED50 [4]: 3.1 mg/kg

SMILES: C=C[C@@H]1CC(=O)[C@H](C/C=C\CCCC(=O)O)[C@H]1/C=C/[C@@H](O)CCCCC [l-11α-vinyl-11-deoxyprostaglandin-E2, 11-deoxy-11α-vinyl-prostaglandin E2]
- ED50 [2]: 1.3 mg/kg
- inhibition in vivo at 50 mg/kg (gastric acid secretion; [6]): 59%
- ED50 [4]: 1.2 mg/kg
